According to patent publication US11473034B2, “Highly stable and alkaline cleaning solutions and soluble surfactant” (EVONIK OPERATIONS GMBH, priority 2018, dated 2022):

Assay: Foaming properties (automated shake test, foam volume relative to solution and foam volume)
Format: physicochemical
Conditions: 2 wt % in 45% KOH
Excerpt: Determining the Foaming Properties of Surfactants
Foaming results from surfactants occupying the air/solution interface to stabilize films of solution that encircle air under agitation. Surfactants may produce more or less foam and contribute to higher or lower stability of these foams. This characteristic of a surfactant may be shown by shaking a tube in a controlled, repeatable fashion (generally through the use of automation) and then measuring the volume of foam in the tube relative to the volume of both foam and solution. Numerous examples of variations on this method may be found in scientific literature, such as Amaral, das Neves, J., Oliveira, Â. Z., and Bahia, M. F., “Foamability of Detergent Solutions Prepared with Different Types of Surfactants and Waters”, Journal of Surfactants and Detergents, 11, 275-278 (2008).
The foaming properties of solutions of Monosodium Cyclohexylamine Dipropionate (Example 1), Monosodium Butyloxypropylamine Dipropionate (Example 2), and 1.5 Sodium Butyloxypropylaminopropylamine Tripropionate (Example 3), prepared as 2 wt % in 45% KOH, were examined. Samples of each solution were shaken vigorously in an automated apparatus to ensure identical treatment of each sample and the volume of foam relative to the total volume of solution and foam was determined.

Q: Which “Foam Volume (as Percentage of Solution and Foam Volume)” value (1 Minute) does the source give for “1.5 Sodium Butyloxypropylaminopropylamine Tripropionate [Example 3]” here?
A: 57.5 Percentage of Solution and Foam Volume

Q: What about the “Foam Volume (as Percentage of Solution and Foam Volume)” value (3 Minutes) of the same substance?
A: 53.1 Percentage of Solution and Foam Volume

Q: And the “Foam Volume (as Percentage of Solution and Foam Volume)” value (Initial)?
A: 57.6 Percentage of Solution and Foam Volume
